Peptide text beside a SMILES is read from it.
How the values were obtained:
[1] = Pharmacology of 99mTc-labeled hLF and peptides by scintigraphy in infected mice
Protocol: Lactoferrins and related peptides were labeled with ^99mTechnetium (^99mTc) as described (22, 23). Briefly, 10 μl of a peptide solution (1 mg/ml of HAc) was added to 2 μl of an aseptic solution of 0.5 mg of stannous pyrophosphate/ml (Dept. of Clinical Pharmacy and Toxicology. Leiden University Medical Center (LUMC). Leiden. The Netherlands). Immediately thereafter, 4 μl of a solution of 10 mg of KBH4 (crystalline. Sigma) per ml of 0.1 M NaOH was added. After addition of 0.1 ml of ^99mTc-sodium pertechnetate solution (200 MBq/ml. Mallinckrodt Medical BV, Petten, The Netherlands), the mixture was gently stirred at ambient temperature for 30 min and then was ready for use. Quality control of the labeling was performed by RP-HPLC analysis using a Sep-Pak C18 cartridge (Waters, Milford, Mass.) in 20 ml of 0.01 M HAc. After rinsing with 20 ml of 0.01 M HAc, proteins and peptides were eluted with 2 ml of methanol (Sigma).
The mice were placed in supine position on a planar gamma camera (Toshiba GCA 7100/UI. Tokyo, Japan) with both hind legs spread out and fixed with surgical tape. Continuous whole body acquisitions of the mice of each 60 s during the first hour after injection of the tracer were made with the gamma camera, equipped with a low-energy general purpose parallel-hole collimator. […] The energy peak was set at 140 keV with a window of 20%.
(§1) On the scintigrams, anatomically adjusted regions of interest (ROI) were drawn over the various organs and both thighs providing data about clearance of ^99mTc-peptides and accumulation at the site of infection. […] The amount of radioactivity in the heart was corrected for decay and expressed as a percentage of injected dose (% ID).

bacterial infection = assay: Imaging microbial infections with 99mTc-labeled hLF and peptides; conditions: as described in Example VI
Source text: The mice were placed in supine position on a planar gamma camera (Toshiba GCA 7100/UI. Tokyo, Japan) with both hind legs spread out and fixed with surgical tape. Continuous whole body acquisitions of the mice of each 60 s during the first hour after injection of the tracer were made with the gamma camera, equipped with a low-energy general purpose parallel-hole collimator. The camera was connected to a computer (GMS 5500 UI, Toshiba) and high-resolution images of the animals were stored as a 256×256 matrix. The energy peak was set at 140 keV with a window of 20%.
as §1

[2] = tested on: the various bacteria (L. monocytogenes, antibiotic resistant S. aureus, K. pneumoniae, E. coli); assay: Assay for antibacterial activity, statements on the various bacteria together; assay type: cell-based; conditions: FIGS. 2A–2D: 7 μM peptide, 1 h at 37° C., NaPB-TSB
Protocol: Listeria monocytogenes strain EGD. Klebsiella pneumoniae (43816), and Escherichia coli O54 were purchased from the American Type Culture Collection (Rockville, Md.). Antibiotic resistant S. aureus, K. pneumoniae and E. coli were cultured overnight in nutrient broth (Oxoid, Basingstoke, UK) at 37° C., diluted in tryptase soya broth (TSB, Oxoid) and cultured for an additional 2 h in a shaking waterbath at 37° C. L. monocytogenes was cultured overnight in brain heart infusion broth (BHI, Oxoid) at 37° C. diluted and cultured for an additional 2 h in a shaking waterbath at 37° C.
In short, bacteria were washed with phosphate-buffered saline (PBS) (pH 7.4) and diluted to a concentration of approximately 2×10^6 CFU/ml of phosphate-buffered saline (pH 6.0) supplemented with 0.1% (v/v) Tween-20 (hereafter designated as PBS-Tw). […] At various time intervals (range 0–4 h) after incubation at 37° C. the number of viable bacteria was determined microbiologically. As negative controls, bovine serum albumin (BSA; Sigma) or no peptide were included.

Molecule: CC(C)[C@H](NC(=O)[C@H](CO)NC(=O)[C@H](CCCNC(=N)N)NC(=O)[C@H](CCCNC(=N)N)NC(=O)[C@H](CCCNC(=N)N)NC(=O)[C@H](CCCNC(=N)N)NC(=O)CN)C(=O)N[C@@H](CCC(N)=O)C(=O)N[C@@H](Cc1c[nH]c2ccccc12)C(=O)N[C@@H](CS)C(=O)N[C@@H](C)C(=O)O [hLF(1–11)] (H-GRRRRSVQWCA-OH; N-terminus and C-terminus assumed)
- mean t1/2 of removal from the circulation ([1]; 99mTc-labeled, S. aureus infected mice, n=3, radioactivity over the heart in first hour): ~9 min
- Accumulation at the site of infection (in words) (bacterial infection): rapidly accumulate at the site of infection

Molecule: CC(C)[C@H](NC(=O)[C@H](CO)NC(=O)[C@H](CCCNC(=N)N)NC(=O)[C@H](CCCNC(=N)N)NC(=O)[C@H](CCCNC(=N)N)NC(=O)[C@@H](N)CCCNC(=N)N)C(=O)N[C@@H](CCC(N)=O)C(=O)N[C@@H](Cc1c[nH]c2ccccc12)C(=O)N[C@@H](CS)C(=O)N[C@@H](C)C(=O)O [hLF(2–11)] (H-RRRRSVQWCA-OH; N-terminus and C-terminus assumed)
- Accumulation at the site of infection (in words) (bacterial infection): rapidly accumulate at the site of infection

Molecule: CC(C)[C@H](NC(=O)[C@H](CO)NC(=O)[C@H](CCCNC(=N)N)NC(=O)[C@H](CCCNC(=N)N)NC(=O)[C@@H](N)CCCNC(=N)N)C(=O)N[C@@H](CCC(N)=O)C(=O)N[C@@H](Cc1c[nH]c2ccccc12)C(=O)N[C@@H](CS)C(=O)N[C@@H](C)C(=O)O [hLF(3–11)] (H-RRRSVQWCA-OH; N-terminus and C-terminus assumed)
- Accumulation at the site of infection (in words) (bacterial infection): rapidly accumulate at the site of infection

Molecule: CC(C)[C@H](NC(=O)[C@H](CO)NC(=O)[C@H](CCCNC(=N)N)NC(=O)[C@@H](N)CCCNC(=N)N)C(=O)N[C@@H](CCC(N)=O)C(=O)N[C@@H](Cc1c[nH]c2ccccc12)C(=O)N[C@@H](CS)C(=O)N[C@@H](C)C(=O)O [hLF(4–11)] (H-RRSVQWCA-OH; N-terminus and C-terminus assumed)
- mean t1/2 of removal from the circulation ([1]; Swiss, mouse, in vivo): approximately 1 min

Molecule: CSCC[C@H](NC(=O)[C@H](CC(N)=O)NC(=O)[C@H](CCCNC(=N)N)NC(=O)[C@H](CCC(N)=O)NC(=O)[C@H](Cc1c[nH]c2ccccc12)NC(=O)[C@H](CCC(N)=O)NC(=O)[C@@H](N)Cc1ccccc1)C(=O)N[C@@H](CCCNC(=N)N)C(=O)N[C@@H](CCCCN)C(=O)N[C@H](C(=O)N[C@@H](CCCNC(=N)N)C(=O)O)C(C)C [hLF(21–31), reference compound] (H-FQWQRNMRKVR-OH; N-terminus and C-terminus assumed)
- mean t1/2 of removal from the circulation ([1]; Swiss, mouse, in vivo): ~2 min

Molecule: hLF(5–11): synthetic fragment of hLF(1–11): residues 5–11 of hLF (SVQWCAV; UniProt P02788 24-30, looked up, fragment)
- Bactericidal activity of synthetic peptides against the various bacteria (in words) [2]: ineffective

Molecule: hLF(6–11): synthetic fragment of hLF(1–11): residues 6–11 of hLF (VQWCAV; UniProt P02788 25-30, looked up, fragment)
- Bactericidal activity of synthetic peptides against the various bacteria (in words) [2]: ineffective
